Data on 25 molecules can be found in patent US20230365592A1 (Agios Pharmaceuticals, Inc., priority 2022, published 2023).

In the test the target is T1, human PAH with the R408W mutation (Homo sapiens, UniProt P00439, R408W).
T1 construct: expressed in transfected cells
T1 sequence (P00439 1-452 R408W): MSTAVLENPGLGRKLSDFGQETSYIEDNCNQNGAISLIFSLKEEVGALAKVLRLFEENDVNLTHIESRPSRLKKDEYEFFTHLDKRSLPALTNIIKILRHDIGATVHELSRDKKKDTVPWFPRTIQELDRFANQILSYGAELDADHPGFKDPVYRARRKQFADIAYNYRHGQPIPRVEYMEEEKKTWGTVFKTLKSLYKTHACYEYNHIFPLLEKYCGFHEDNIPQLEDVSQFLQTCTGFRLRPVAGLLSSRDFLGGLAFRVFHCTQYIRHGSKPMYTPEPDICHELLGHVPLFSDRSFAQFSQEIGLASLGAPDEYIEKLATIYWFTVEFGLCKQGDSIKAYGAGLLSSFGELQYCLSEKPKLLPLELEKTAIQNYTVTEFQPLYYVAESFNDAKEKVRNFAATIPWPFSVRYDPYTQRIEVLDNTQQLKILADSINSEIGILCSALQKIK
Kind of test: Cell Based Phenylalanine Flux Assay.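 Note: after compound treatment, cells received sepiapterin plus isotope-labelled Phenylalanine for 4 hours, then labelled Tyrosine in the medium was quantified, 10-point 2-fold dilution series run in duplicate.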 The settings on record: A375 cells expressing human R408W PAH; 24 hrs compound incubation; 13C-Tyrosine by LC-MS; average where tested multiple times; read-out: AC50.
The AC50 is the concentration giving half of the maximal activity seen. Turning to `Cc1ccc(-c2nnc(C(=O)N3CCc4[nH]cnc4[C@@H]3c3cc4c(F)cccn4n3)o2)nc1` [Example 876, (R)-(4-(4-fluoropyrazolo[1,5-a]pyridin-2-yl)-6,7-dihydro-1H-imidazo[4,5-c]pyridin-5(4H)-yl)(5-(5-methylpyridin-2-yl)-1,3,4-oxadiazol-2-yl)methanone], the AC50 is > 5000 nM.
Consider `Cc1ccc(-c2nnc(C(=O)N3CCc4[nH]cnc4[C@H]3c3cc4c(F)cccn4n3)o2)nc1` [Example 877, (S)-(4-(4-fluoropyrazolo[1,5-a]pyridin-2-yl)-6,7-dihydro-1H-imidazo[4,5-c]pyridin-5(4H)-yl)(5-(5-methylpyridin-2-yl)-1,3,4-oxadiazol-2-yl)methanone], for which the AC50 was < 500 nM.
Turning to `O=C(c1nnc(-c2ccc(C(F)(F)F)cn2)o1)N1CCc2[nH]cnc2[C@@H]1c1cc2c(F)cccn2n1` [Example 878, (R)-(4-(4-fluoropyrazolo[1,5-a]pyridin-2-yl)-6,7-dihydro-1H-imidazo[4,5-c]pyridin-5(4H)-yl)(5-(5-(trifluoromethyl)pyridin-2-yl)-1,3,4-oxadiazol-2-yl)methanone], the AC50 was > 5000 nM.
Under `O=C(c1nnc(-c2ccc(C(F)(F)F)cn2)o1)N1CCc2[nH]cnc2[C@H]1c1cc2c(F)cccn2n1` [Example 879, (S)-(4-(4-fluoropyrazolo[1,5-a]pyridin-2-yl)-6,7-dihydro-1H-imidazo[4,5-c]pyridin-5(4H)-yl)(5-(5-(trifluoromethyl)pyridin-2-yl)-1,3,4-oxadiazol-2-yl)methanone] stands < 500 nM; under `O=C(c1nnc(-c2ccc(F)cn2)o1)N1CCc2[nH]cnc2[C@@H]1c1cc2c(F)cccn2n1` [Example 880, (R)-(4-(4-fluoropyrazolo[1,5-a]pyridin-2-yl)-6,7-dihydro-1H-imidazo[4,5-c]pyridin-5(4H)-yl)(5-(5-fluoropyridin-2-yl)-1,3,4-oxadiazol-2-yl)methanone], > 5000 nM.
Regarding `O=C(c1nnc(-c2ccc(F)cn2)o1)N1CCc2[nH]cnc2[C@H]1c1cc2c(F)cccn2n1` [Example 881, (S)-(4-(4-fluoropyrazolo[1,5-a]pyridin-2-yl)-6,7-dihydro-1H-imidazo[4,5-c]pyridin-5(4H)-yl)(5-(5-fluoropyridin-2-yl)-1,3,4-oxadiazol-2-yl)methanone], the AC50 is < 500 nM.
In the case of `Cc1cc(-c2nnc(C(=O)N3CCc4[nH]cnc4[C@@H]3c3cc4c(F)cccn4n3)o2)nn1C` [Example 882, (R)-(5-(1,5-dimethyl-1H-pyrazol-3-yl)-1,3,4-oxadiazol-2-yl)(4-(4-fluoropyrazolo[1,5-a]pyridin-2-yl)-6,7-dihydro-1H-imidazo[4,5-c]pyridin-5(4H)-yl)methanone] it was > 5000 nM; in that of `Cn1nccc1C(=O)N1CCc2[nH]cnc2[C@H]1c1cc2c(F)cccn2n1` [Example 884, (S)-(4-(4-fluoropyrazolo[1,5-a]pyridin-2-yl)-6,7-dihydro-1H-imidazo[4,5-c]pyridin-5(4H)-yl)(1-methyl-1H-pyrazol-5-yl)methanone], 500 to 1000 nM.
Under `COc1cccn2nc([C@@H]3c4nc[nH]c4CCN3C(=O)c3cc(C(F)F)nn3C)cc12` [Example 886, (S)-(3-(difluoromethyl)-1-methyl-1H-pyrazol-5-yl)(4-(4-methoxypyrazolo[1,5-a]pyridin-2-yl)-6,7-dihydro-1H-imidazo[4,5-c]pyridin-5(4H)-yl)methanone] stands < 500 nM; under `COc1cccn2nc([C@H]3c4nc[nH]c4CCN3C(=O)c3cc(C(F)F)nn3C)cc12` [Example 887, (R)-(3-(difluoromethyl)-1-methyl-1H-pyrazol-5-yl)(4-(4-methoxypyrazolo[1,5-a]pyridin-2-yl)-6,7-dihydro-1H-imidazo[4,5-c]pyridin-5(4H)-yl)methanone], > 5000 nM; under `Cn1cncc1-c1nc(C(F)F)c(C(=O)N2CCc3[nH]cnc3[C@@H]2c2cc3c(F)cccn3n2)o1` [Example 888, (R)-(4-(difluoromethyl)-2-(1-methyl-1H-imidazol-5-yl)oxazol-5-yl)(4-(4-fluoropyrazolo[1,5-a]pyridin-2-yl)-6,7-dihydro-1H-imidazo[4,5-c]pyridin-5(4H)-yl)methanone], > 5000 nM.
Regarding `Cn1cncc1-c1nc(C(F)F)c(C(=O)N2CCc3[nH]cnc3[C@H]2c2cc3c(F)cccn3n2)o1` [Example 889, (S)-(4-(difluoromethyl)-2-(1-methyl-1H-imidazol-5-yl)oxazol-5-yl)(4-(4-fluoropyrazolo[1,5-a]pyridin-2-yl)-6,7-dihydro-1H-imidazo[4,5-c]pyridin-5(4H)-yl)methanone], the AC50 lay within 500 to 1000 nM.
As for `Cc1cccn2nc([C@H]3c4nc[nH]c4CCN3C(=O)c3oc(-c4cncn4C)nc3C(F)F)cc12` [Example 890, (R)-(4-(difluoromethyl)-2-(1-methyl-1H-imidazol-5-yl)oxazol-5-yl)(4-(4-methylpyrazolo[1,5-a]pyridin-2-yl)-6,7-dihydro-1H-imidazo[4,5-c]pyridin-5(4H)-yl)methanone], the AC50 was > 5000 nM.
Regarding `Cc1cccn2nc([C@@H]3c4nc[nH]c4CCN3C(=O)c3oc(-c4cncn4C)nc3C(F)F)cc12` [Example 891, (S)-(4-(difluoromethyl)-2-(1-methyl-1H-imidazol-5-yl)oxazol-5-yl)(4-(4-methylpyrazolo[1,5-a]pyridin-2-yl)-6,7-dihydro-1H-imidazo[4,5-c]pyridin-5(4H)-yl)methanone], the AC50 was < 500 nM.
Consider `Cc1cc(C(=O)N2CCc3[nH]cnc3[C@H]2c2cc3ccccn3n2)n(C)n1` [Example 892, (S)-(1,3-dimethyl-1H-pyrazol-5-yl)(4-(pyrazolo[1,5-a]pyridin-2-yl)-6,7-dihydro-1H-imidazo[4,5-c]pyridin-5(4H)-yl)methanone], for which the AC50 is < 500 nM.
In the case of `Cc1cccn2nc([C@H]3c4nc[nH]c4CCN3C(=O)c3nnc(-c4cccnc4)o3)cc12` [Example 895, (R)-(4-(4-methylpyrazolo[1,5-a]pyridin-2-yl)-6,7-dihydro-1H-imidazo[4,5-c]pyridin-5(4H)-yl)(5-(pyridin-3-yl)-1,3,4-oxadiazol-2-yl)methanone] it was > 5000 nM; in that of `O=C(c1nnc(-c2cccnc2)o1)N1CCc2[nH]cnc2[C@H]1c1cc2c(F)cccn2n1` [Example 896, (S)-(4-(4-fluoropyrazolo[1,5-a]pyridin-2-yl)-6,7-dihydro-1H-imidazo[4,5-c]pyridin-5(4H)-yl)(5-(pyridin-3-yl)-1,3,4-oxadiazol-2-yl)methanone], < 500 nM.
For the molecule `O=C(c1nnc(-c2cccnc2)o1)N1CCc2[nH]cnc2[C@@H]1c1cc2c(F)cccn2n1` [Example 897, (R)-(4-(4-fluoropyrazolo[1,5-a]pyridin-2-yl)-6,7-dihydro-1H-imidazo[4,5-c]pyridin-5(4H)-yl)(5-(pyridin-3-yl)-1,3,4-oxadiazol-2-yl)methanone], the AC50 was > 5000 nM.
Under `COc1cccn2nc([C@@H]3c4nc[nH]c4CCN3C(=O)c3ccnn3-c3ccccn3)cc12` [Example 898, (S)-(4-(4-methoxypyrazolo[1,5-a]pyridin-2-yl)-6,7-dihydro-1H-imidazo[4,5-c]pyridin-5(4H)-yl)(1-(pyridin-2-yl)-1H-pyrazol-5-yl)methanone] stands < 500 nM; under `Cc1cc(C(=O)N2CCc3[nH]cnc3[C@H]2c2cc3c(C)cccn3n2)n(C)n1` [Example 900, (S)-(1,3-dimethyl-1H-pyrazol-5-yl)(4-(4-methylpyrazolo[1,5-a]pyridin-2-yl)-6,7-dihydro-1H-imidazo[4,5-c]pyridin-5(4H)-yl)methanone], < 500 nM.
Under `Cc1cc(C(=O)N2CCc3[nH]cnc3[C@@H]2c2cc3c(C)cccn3n2)n(C)n1` [Example 901, (R)-(1,3-dimethyl-1H-pyrazol-5-yl)(4-(4-methylpyrazolo[1,5-a]pyridin-2-yl)-6,7-dihydro-1H-imidazo[4,5-c]pyridin-5(4H)-yl)methanone] stands > 5000 nM; under `Cn1cc(-c2nc(C(F)F)c(C(=O)N3CCc4[nH]cnc4[C@H]3c3cc4c(F)cccn4n3)o2)cn1` [Example 902, (S)-(4-(difluoromethyl)-2-(1-methyl-1H-pyrazol-4-yl)oxazol-5-yl)(4-(4-fluoropyrazolo[1,5-a]pyridin-2-yl)-6,7-dihydro-1H-imidazo[4,5-c]pyridin-5(4H)-yl)methanone], < 500 nM; under `Cn1cc(-c2nc(C(F)F)c(C(=O)N3CCc4[nH]cnc4[C@@H]3c3cc4c(F)cccn4n3)o2)cn1` [Example 903, (R)-(4-(difluoromethyl)-2-(1-methyl-1H-pyrazol-4-yl)oxazol-5-yl)(4-(4-fluoropyrazolo[1,5-a]pyridin-2-yl)-6,7-dihydro-1H-imidazo[4,5-c]pyridin-5(4H)-yl)methanone], 1000 to 5000 nM.
In the case of `O=C(c1nnc(-c2ncccc2F)o1)N1CCc2[nH]cnc2[C@@H]1c1cc2c(C(F)(F)F)cccn2n1` [Example 904, (R)-(5-(3-fluoropyridin-2-yl)-1,3,4-oxadiazol-2-yl)(4-(4-(trifluoromethyl)pyrazolo[1,5-a]pyridin-2-yl)-6,7-dihydro-1H-imidazo[4,5-c]pyridin-5(4H)-yl)methanone] it was > 5000 nM.
Turning to `O=C(c1nnc(-c2ncccc2F)o1)N1CCc2[nH]cnc2[C@H]1c1cc2c(C(F)(F)F)cccn2n1` [Example 905, (S)-(5-(3-fluoropyridin-2-yl)-1,3,4-oxadiazol-2-yl)(4-(4-(trifluoromethyl)pyrazolo[1,5-a]pyridin-2-yl)-6,7-dihydro-1H-imidazo[4,5-c]pyridin-5(4H)-yl)methanone], the AC50 is < 500 nM.
